# What was measured:
# [1] = in vivo; cited from earlier work
# [2] = tested on: OVA-challenged mice (experimental asthma); experiment: OVA experimental asthma: lung tissue eosinophils (anti-major basic protein immunolabeling); assay type: in vivo, mouse; details: daily s.c. 2 μg tocopherol days 13-20, day 21
# [3] = tested on: OVA-challenged mice (experimental asthma); experiment: Airway hyperresponsiveness to methacholine, whole-body plethysmography (Penh); assay type: in vivo, mouse
# Description: Airway Hyperresponsiveness. Lung responsiveness was determined using methacholine as previously described. On day 21, the mice were analyzed for airway responsiveness by whole body plethysmology. The whole-body plethysmography on conscious, unrestrained mice was performed under continuous airflow conditions (Buxco, Troy, N.Y.). Continuous airflow was used to avoid the influence of conditioning on airway functions, causing aberrant measurements. Enhanced pause (Penh) values were calculated from the flow-derived whole-body plethysmography measurements done with continuous air flow. Penh is a unitless indicator of changes in airway resistance and correlates well with specific airway resistance. Baseline readings were averaged for 5 minutes. Saline or methacholine was nebulized into the airflow for 2-minute periods and the average Penh value calculated for this and the subsequent 8 minutes.
# Mice were sensitized with intraperitoneal injection of OVA grade V (10 μg)/alum or saline/alum on days 0 and 7 (SEE FIG. 2). On days 13-20, these mice received daily subcutaneous injections (500) of 2 μg natural tocopherol/ethoxylated castor oil (33) or ethoxylated castor oil alone. This daily 2 μg of natural tocopherol is equivalent to the amount of tocopherol that mice consume from diets (4 g diet consumed/day×500 mg a tocopherol/kg diet) that are commonly used to elevate tissue tocopherols in mice. On days 16, 18, and 20 the mice were challenged with intranasal OVA fraction VI (150 μg) in saline or saline alone. On day 21, the mice were analyzed for airway responsiveness and then tissues were collected. Lung responsiveness was determined using methacholine and whole-body plethysmography as previously described. This method of measuring lung function has the advantage of analysis of larger numbers of animals, as compared to the few animals that can be analyzed using invasive measures of lung function. The whole-body plethysmography correlates well with airway function when performed under continuous flow conditions. […]
# [4] = tested on: OVA-challenged mice (experimental asthma); experiment: OVA experimental asthma: leukocyte infiltration into bronchoalveolar lavage (BAL); assay type: in vivo, mouse
# Description: Reagents. Ethoxylated castor oil was composed of polyethoxylated castor oil (PEG35), 20% ethanol, and 1% benzyl alcohol. […] The purified tocopherols were diluted in ethoxylated castor oil to indicated concentrations for the in vivo studies. The purified tocopherols were diluted in DMSO (0.2%) for the in vitro studies. OVA administration. BALB/c female mice were maintained on chow diet. The mice were sensitized by intraperitoneal injection (200 μl) of OVA grade V (10 μg)/alum or saline/alum on days 0 and 7 (SEE FIG. 1). On days 13-20, these mice received daily subcutaneous injections (50 μl) of 2 μg natural tocopherol/ethoxylated castor oil or ethoxylated castor oil alone. This daily 2 μg of natural tocopherol is equivalent to the amount of tocopherol that mice consume from diets (4 g diet consumed/day×500 mg α-tocopherol/kg diet) that are commonly used to elevate tissue tocopherols in mice. The mice recieved 2 μg d-α-tocopherol, 2 μg d-γ-tocopherol, 2 μg d-α-tocopherol plus 2 μg d-γ-tocopherol or the vehicle exthoxylated castor oil. […] During the OVA responses in mice, tocopherol radicals are recycled by endogenously synthesized ascorbic acid. On days 16, 18, and 20, the mice were challenged with intranasal OVA fraction VI (150 μg) in saline or saline alone. On day 21, the mice were analyzed for airway responsiveness followed by collection of tissues.
# (§1) Tissue collection. After airway function analysis, mice were weighed, sacrificed and the lungs flushed twice with 0.8 ml PBS. The cells in this bronchoalveolar lavage (BAL) were cytospun onto slides, DiffQuik (Baxter) stained, and differential cell counts were performed. BAL supernatants were snap frozen and stored at −80° C. for cytokine analysis. Lungs were perfused free of blood and one quarter of the lung was tied off, collected, weighed, snap frozen, and stored at −80° C. for tocopherol analysis and PGE2 analysis. One quarter of the lung was collected and placed in RNA later for analysis of mRNA for eotaxin expression. The other half of the lung was injected with 40% freezing compound, collected and stored at −80° C. for tissue sections and histological staining Frozen sections were prepared rather than paraffin sections since the anti-mouse VCAM-1 antibodies only bind to VCAM-1 in frozen sections.
# Mice were sensitized with intraperitoneal injection of OVA grade V (10 μg)/alum or saline/alum on days 0 and 7 (SEE FIG. 2). On days 13-20, these mice received daily subcutaneous injections (500) of 2 μg natural tocopherol/ethoxylated castor oil (33) or ethoxylated castor oil alone. This daily 2 μg of natural tocopherol is equivalent to the amount of tocopherol that mice consume from diets (4 g diet consumed/day×500 mg a tocopherol/kg diet) that are commonly used to elevate tissue tocopherols in mice. On days 16, 18, and 20 the mice were challenged with intranasal OVA fraction VI (150 μg) in saline or saline alone. On day 21, the mice were analyzed for airway responsiveness and then tissues were collected. Lung responsiveness was determined using methacholine and whole-body plethysmography as previously described. This method of measuring lung function has the advantage of analysis of larger numbers of animals, as compared to the few animals that can be analyzed using invasive measures of lung function. The whole-body plethysmography correlates well with airway function when performed under continuous flow conditions. This measurement under continuous flow is critical as it avoids the complication of airway conditioning that occurs if these measurements are incorrectly made under closed conditions. After airway analysis, mice were sacrificed and tissues collected.
# [5] = Body and lung weights on day 21; assay type: in vivo, mouse; details: mice, day 21, daily s.c. tocopherol days 13-20
# Description: as §1
# Body weight and tocopherol levels in these mice were examined. […] Consistent with this, the body weight and lung weights of the mice studied during the development of embodiments of the present invention were unaltered by the α-tocopherol or γ-tocopherol treatments (SEE FIG. 3). Lungs were perfused to remove the blood, homogenized in ethanol and extracted with hexane. Tocopherol concentrations were determined by HPLC with an electrochemical detector. The lung tissue and plasma levels of tocopherols were elevated (SEE FIG. 4). […] The level of γ-tocopherol in the lung tissue of γ-tocopherol-treated mice was 10 fold lower than lung tissue α-tocopherol in the α-tocopherol-treated mice. This 10 fold difference in α-tocopherol and γ-tocopherol levels in the lung tissues may be caused preferential transfer of α-tocopherol in the liver by a TTP (20, 24), although the present invention is not limited to any particular mechanism of action and an understanding of the mechanism of action is not necessary to practice the present invention. […] Administration of tocopherols also had no effect on the low levels of δ-tocopherol in the lung (SEE FIG. 4A).
# [6] = Tocopherol levels in lung tissue and plasma (HPLC, electrochemical detector); assay type: in vivo, mouse
# Description: Body weight and tocopherol levels in these mice were examined. […] Lungs were perfused to remove the blood, homogenized in ethanol and extracted with hexane. Tocopherol concentrations were determined by HPLC with an electrochemical detector.
# [7] = tested on: VCAM-1-dependent spleen cell migration across mHEVa endothelial cells; experiment: In vitro Transwell migration assay; assay type: cell-based, mouse
# Description: In vitro Transwell migration assay. mHEVa cells were grown to confluence on Transwells with 12 μm pores (Costar Cambridge, Mass.). The mHEVc cell monolayers block nonspecific accumulation of red blood cells in the lower transwell chamber and block FITC-albumin diffusion. Spleen cell migration is stimulated by mHEV cell secretion of the chemokine MCP-1. The number of lymphocytes that migrate is linear from 0-24 hrs followed by a plateau. Spleen cells that migrate are greater than 95% lymphocytes and the percentage of cells that migrate is consistent with other in vitro models with endothelial cell lines or cytokine-activated microvascular endothelial cells.
# In this transendothelial migration assay used, the migrated spleen cells are >95% lymphocytes and the B cells and T cells migrate in response to MCP-1. […]
# arthritis = experiment: Arthritis
# PKCα = target: T1, PKCα (Mus musculus, UniProt P20444); experiment: VCAM-1 activation of endothelial cell PKCα (PKCα-Thr638 phosphorylation, western blot); assay type: cell-based; details: overnight 80 μM α-tocopherol / 2 μM γ-tocopherol; anti-VCAM-1 stimulation 10 minutes
# T1 construct: endogenous in cells; host or cells: endothelial cells (mHEVa named)
# Description: Endothelial cells were pretreated overnight with physiological concentrations of tocopherols (80 μM α-tocopherol and/or 2 μM γ-tocopherol). Endothelial cell VCAM-1 was stimulated with anti-VCAM-1 and a secondary antibody for 10 minutes. Phosphorylation of PKCα-Thr^638 was examined by western blot, developed using an ECL kit, and analyzed by densitometry as in the methods section. These concentrations of α-tocopherol (80 μM) and γ-tocopherol (2 μM) were optimal for their inhibition or enhancement, respectively, of VCAM-1 activation of PKCα (data not shown). Shown are representative blots and data from 5 experiments. *, p<0.05 compared to nonstimulated groups. **, p<0.05 compared to nonstimulated groups and p<0.07 compared to DMSO-treated/anti-VCAM-stimulated group.
# [8] = OVA-challenged mice, co-treatment with α-tocopherol
# [9] = OVA-challenged BALB/c mice, daily s.c. 2 μg tocopherol days 13-20, day 21, vs OVA-challenged vehicle
structure (smiles),measurement,setting,value
"Cc1c(O)cc2c(c1C)O[C@](C)(CCC[C@H](C)CCC[C@H](C)CCCC(C)C)CC2 [γ-tocopherol, d-γ-tocopherol]",Retention in tissues relative to α-tocopherol,[1],10%
same,Eosinophils in the lung tissue,[2],elevated
same,"Airway hyperresponsiveness (AHR), enhanced pause (Penh)","[3]; OVA-challenged BALB/c mice, methacholine dose curve, day 21",elevated
same,Effect on α-tocopherol inhibition of AHR,[3]; [8],antagonized the inhibition by α-tocopherol
same,OVA-stimulated infiltration of eosinophils into the BAL,[4]; [9],significantly increased
same,OVA-stimulated infiltration of lymphocytes into the BAL,[4]; [9],significantly increased
same,OVA-stimulated infiltration of monocytes into the BAL,[4]; [9],significantly increased
same,OVA-stimulated infiltration of neutrophils into the BAL,[4]; [9],significantly increased
same,Effect on the benefit of α-tocopherol (BAL leukocyte infiltration),[4]; [8],blocked the benefit of α-tocopherol
same,Body weight,[5],unaltered
same,Lung weights,[5],unaltered
same,Lung tissue γ-tocopherol in γ-tocopherol-treated mice relative to lung tissue α-tocopherol in α-tocopherol-treated mice,[6]; day 21,10 fold lower
same,Lung tissue level of the other tocopherol (α vs γ),"[6]; mice, day 21",did not alter
same,Lung tissue level of the administered tocopherol,"[6]; mice, day 21, daily s.c. 2 μg tocopherol days 13-20",elevated levels
same,Effect on α-tocopherol inhibition of spleen cell migration,[7]; 5 μM γ-tocopherol with α-tocopherol (80 μM)-treated cells,ablated
same,Lymphocyte migration after pretreatment of endothelial cells,"[7]; endothelial cells pretreated, washed five times, transwell assay",elevated lymphocyte migration
same,Migration after pretreatment of leukocytes with tocopherol and washing,"[7]; leukocytes pretreated, washed",no effect on migration
same,Lymphocyte migration in transwell migration assay,"[7]; tocopherol left in culture, 24 hours after addition of spleen cells, 80 μM α / 5 μM γ",significantly increases lymphocyte migration
same,Effect on arthritis,arthritis,exacerbatory effect
same,VCAM-1 activation of PKCα (phosphorylation of PKCα-Thr638),PKCα,enhancement
